Reference: US20060189688A1 (priority 2003, published 2006)

Assays:
[1] = system: human influenza A virus NWS/33, H1N1; format: cell-based
[2] = system: virus-specific receptors located on red blood cells; parameters: species or system human; settings: red blood cells used for the haemagglutination assay
[3] = system: human influenza A virus NWS/33, H1N1; format: cell-based; remark: listed apart in the source
[4] = system: human influenza A virus NWS/33, H1N1; format: cell-based; remark: listed apart in the source
[5] = system: viral haemagglutinin HA antigen on the cellular surface of infected LLC-MK2 cells; format: cell-based, influenza A virus; settings: 24 and 48 hours post infection; treated versus untreated infected LLC-MK2 cells
[6] = system: virus-induced polypeptides of A/NWS/33 in LLC-MK2 cells; format: cell-based, influenza A virus; settings: MESNA 20 mg/ml, effect particularly evident at 1, 2, 5, 1.0, 15 mg/ml
[7] = system: avian influenza A virus Ulster/73, H7N1; format: cell-based; settings: A/Ulster/73, H7N1 strain

`O=S(=O)([O-])CCS.[Na+]` [MESNA, Sodium 2-mercaptoethanesulfonate] was tested, and the “virus production (haemagglutination, presence/absence of mature viral particles)” value [1] was “able to suppress virus production”, the “interference with virus-specific receptors on red blood cells” value [2] was “did not interfere” and the “time of addition up to which MESNA is effective” value [3] was no more than 6 hours post infection. The “reversibility of inhibition of the production of viral particles” value [4] was “irreversible inhibition”, the “haemagglutinin molecules on the surface of infected cells (haemadsorption values)” value [5] was “great reduction, if not the absence” and the “synthesis of virus-induced polypeptides (early and late viral proteins)” value [6] was “marked reduction”. The “results with avian strain compared with human influenza virus A/NWS/33” value [7] was “completely reproducible and absolutely comparable”.
`O=C([O-])CN(CCN(CC(=O)[O-])CC(=O)[O-])CC(=O)[O-].[Na+].[Na+].[Na+].[Na+]` [sodium edetate] was tested, and the “antiviral action in comparison studies (all experiments repeated)” value [1] was “not able to exert an antiviral action”.
